Holding throughout (assay): relative viability (nuclei count vs DMSO), 5 days (fraction); higher = more cells survive
Compound in assay [1]: Cc1ccc2nc(NCCN)c3ncc(C)n3c2c1 + COc1cccc2cc(-c3nc([C@H]4CC[C@H](C(=O)O)CC4)n4ncnc(N)c34)[nH]c12 [OSI-027] (partner 0.5 µM)
Put shortly:
(§1)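 Cells from lung cancer lines were seeded into 1536-well plates and, one day later, dosed by pin tool. Treatments were either a single drug or a fixed dose of an anchor drug with five library-drug doses (not always all listed) in √10 steps. After 5 days, nuclei were stained in a one-step fixation (final 0.05% Triton X-100, 1% formaldehyde, 1 ug/ml Hoechst) and counted on 4× images, and relative viability is the treated-to-vehicle nuclei ratio, as the median of duplicate plates.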

Compound in the assay “Salubrinal + Luminespib”: O=C(/C=C/c1ccccc1)NC(NC(=S)Nc1cccc2cccnc12)C(Cl)(Cl)Cl [Salubrinal] + CCNC(=O)c1noc(-c2cc(C(C)C)c(O)cc2O)c1-c1ccc(CN2CCOCC2)cc1 [Luminespib] (partner 0.01 µM)
The method in brief:
as §1

Compound in the assay “Salubrinal + Lapatinib”: O=C(/C=C/c1ccccc1)NC(NC(=S)Nc1cccc2cccnc12)C(Cl)(Cl)Cl [Salubrinal] + CS(=O)(=O)CCNCc1ccc(-c2ccc3ncnc(Nc4ccc(OCc5cccc(F)c5)c(Cl)c4)c3c2)o1 [Lapatinib] (partner 2 µM)
Put shortly: as §1

Compound in the assay “Salubrinal + AZD7762”: O=C(/C=C/c1ccccc1)NC(NC(=S)Nc1cccc2cccnc12)C(Cl)(Cl)Cl [Salubrinal] + NC(=O)Nc1cc(-c2cccc(F)c2)sc1C(=O)N[C@H]1CCCNC1 [AZD7762] (partner 0.2 µM)
Put shortly: as §1

Results on six cell lines are retold here after the supplement of paper PMC10307832.

NCI-H322M: the relative viability was determined as 0.641 in assay [1] (first compound 0.04 µM); 0.544 in assay [1] (first compound 0.1265 µM); 0.481 in assay [1] (first compound 0.4 µM); 0.568 in assay [1] (first compound 1.265 µM); 0.526 in assay [1] (first compound 4 µM); 1.06 in the assay with Salubrinal + Luminespib (first compound 0.08 µM). For the same cell line, the relative viability is 0.794 in the assay with Salubrinal + Luminespib (first compound 0.253 µM); 0.866 with Salubrinal + Luminespib (first compound 0.8 µM); 0.761 in the assay with Salubrinal + Luminespib (first compound 2.53 µM); 0.712 in the assay with Salubrinal + Luminespib (first compound 8 µM); 0.606 with Salubrinal + Lapatinib (first compound 0.08 µM); 0.589 with Salubrinal + Lapatinib (first compound 0.253 µM). Further, the relative viability was found to be 0.669 with Salubrinal + Lapatinib (first compound 0.8 µM); 0.657 in the assay with Salubrinal + Lapatinib (first compound 2.53 µM); 0.517 with Salubrinal + Lapatinib (first compound 8 µM); 0.576 in the assay with Salubrinal + AZD7762 (first compound 0.08 µM); 0.531 with Salubrinal + AZD7762 (first compound 0.253 µM); 0.599 with Salubrinal + AZD7762 (first compound 0.8 µM). Besides, the figures for the relative viability in the assay with Salubrinal + AZD7762 (first compound 2.53 µM) and with Salubrinal + AZD7762 (first compound 8 µM) were 0.497 and 0.581, respectively.
For ABC-1, the relative viability was 0.595 in assay [1] (first compound 0.04 µM); 0.559 in assay [1] (first compound 0.1265 µM); 0.564 in assay [1] (first compound 0.4 µM); 0.439 in assay [1] (first compound 1.265 µM); 0.484 in assay [1] (first compound 4 µM); 0.559 with Salubrinal + Luminespib (first compound 0.08 µM). The relative viability came to 0.8 with Salubrinal + Luminespib (first compound 0.8 µM); 0.473 with Salubrinal + Luminespib (first compound 2.53 µM); 0.728 in the assay with Salubrinal + Luminespib (first compound 8 µM); 1.46 with Salubrinal + Lapatinib (first compound 0.08 µM); 1.35 with Salubrinal + Lapatinib (first compound 0.253 µM); 1.17 with Salubrinal + Lapatinib (first compound 0.8 µM). Further, the relative viability came to 1.25 in the assay with Salubrinal + Lapatinib (first compound 2.53 µM); 1.15 in the assay with Salubrinal + Lapatinib (first compound 8 µM); 0.97 with Salubrinal + AZD7762 (first compound 0.08 µM); 0.998 in the assay with Salubrinal + AZD7762 (first compound 0.253 µM); 0.948 with Salubrinal + AZD7762 (first compound 0.8 µM); 0.898 with Salubrinal + AZD7762 (first compound 2.53 µM). The relative viability in the assay with Salubrinal + AZD7762 (first compound 8 µM) stood at 0.825.
Regarding NCI-H1666, the relative viability in assay [1] (first compound 0.04 µM) amounted to 0.839; in assay [1] (first compound 0.1265 µM), 0.799; in assay [1] (first compound 0.4 µM) it was 0.887; in assay [1] (first compound 1.265 µM), 0.816; in assay [1] (first compound 4 µM), 0.774; in the assay with Salubrinal + Luminespib (first compound 0.08 µM), 0.984. The relative viability in the assay with Salubrinal + Luminespib (first compound 0.253 µM) amounted to 0.903; with Salubrinal + Luminespib (first compound 0.8 µM), 0.95; with Salubrinal + Luminespib (first compound 2.53 µM), 0.945; with Salubrinal + Luminespib (first compound 8 µM), 1.1; with Salubrinal + Lapatinib (first compound 0.08 µM) it was 0.582; with Salubrinal + Lapatinib (first compound 0.253 µM), 0.56. Besides, the relative viability came out at 0.767 with Salubrinal + Lapatinib (first compound 0.8 µM); 0.58 with Salubrinal + Lapatinib (first compound 2.53 µM); 0.691 with Salubrinal + Lapatinib (first compound 8 µM); 0.793 with Salubrinal + AZD7762 (first compound 0.08 µM); 0.863 with Salubrinal + AZD7762 (first compound 0.253 µM); 0.831 in the assay with Salubrinal + AZD7762 (first compound 0.8 µM). Besides, the relative viability was determined as 0.704 with Salubrinal + AZD7762 (first compound 2.53 µM) and 0.926 with Salubrinal + AZD7762 (first compound 8 µM).
For the cell line NCI-H1993, the relative viability turned out to be 0.521 in assay [1] (first compound 0.04 µM); 0.53 in assay [1] (first compound 0.1265 µM); 0.544 in assay [1] (first compound 0.4 µM); 0.562 in assay [1] (first compound 1.265 µM); 0.508 in assay [1] (first compound 4 µM); 0.899 with Salubrinal + Luminespib (first compound 0.08 µM). The relative viability worked out at 0.681 with Salubrinal + Luminespib (first compound 0.253 µM); 0.987 in the assay with Salubrinal + Luminespib (first compound 0.8 µM); 0.896 with Salubrinal + Luminespib (first compound 2.53 µM); 0.827 in the assay with Salubrinal + Luminespib (first compound 8 µM); 0.887 with Salubrinal + Lapatinib (first compound 0.08 µM); 0.866 in the assay with Salubrinal + Lapatinib (first compound 0.253 µM). In addition, the relative viability with Salubrinal + Lapatinib (first compound 0.8 µM) came out at 0.814; with Salubrinal + Lapatinib (first compound 2.53 µM), 1.14; with Salubrinal + Lapatinib (first compound 8 µM), 0.9; in the assay with Salubrinal + AZD7762 (first compound 0.08 µM), 0.909; with Salubrinal + AZD7762 (first compound 0.253 µM) it was 0.744; in the assay with Salubrinal + AZD7762 (first compound 0.8 µM), 0.871. Also, the relative viability with Salubrinal + AZD7762 (first compound 8 µM) stood at 0.612.
Turning to NCI-H1975, the relative viability was found to be 0.709 in assay [1] (first compound 0.04 µM); 0.692 in assay [1] (first compound 0.1265 µM); 0.711 in assay [1] (first compound 0.4 µM); 0.716 in assay [1] (first compound 1.265 µM); 0.523 in assay [1] (first compound 4 µM); 0.223 with Salubrinal + Luminespib (first compound 0.08 µM). In addition, the relative viability was 0.394 in the assay with Salubrinal + Luminespib (first compound 0.253 µM); 0.292 with Salubrinal + Luminespib (first compound 0.8 µM); 0.257 with Salubrinal + Luminespib (first compound 2.53 µM); 0.282 with Salubrinal + Luminespib (first compound 8 µM); 1.04 in the assay with Salubrinal + Lapatinib (first compound 0.08 µM); 0.594 in the assay with Salubrinal + Lapatinib (first compound 0.253 µM). The relative viability with Salubrinal + Lapatinib (first compound 0.8 µM) is 0.967; with Salubrinal + Lapatinib (first compound 2.53 µM), 0.928; with Salubrinal + Lapatinib (first compound 8 µM), 0.798; in the assay with Salubrinal + AZD7762 (first compound 0.08 µM) it was 0.691; with Salubrinal + AZD7762 (first compound 0.253 µM) it was 0.611; with Salubrinal + AZD7762 (first compound 0.8 µM) it was 0.853. The relative viability was 0.744 with Salubrinal + AZD7762 (first compound 2.53 µM) and 0.601 with Salubrinal + AZD7762 (first compound 8 µM).
With HCC-44, the relative viability is 0.49 in assay [1] (first compound 0.04 µM); 0.451 in assay [1] (first compound 0.1265 µM); 0.448 in assay [1] (first compound 0.4 µM); 0.631 in assay [1] (first compound 1.265 µM); 0.384 in assay [1] (first compound 4 µM); 1.32 with Salubrinal + Luminespib (first compound 0.08 µM). Further, the relative viability with Salubrinal + Luminespib (first compound 0.253 µM) is 1.08; in the assay with Salubrinal + Luminespib (first compound 0.8 µM), 1.09; with Salubrinal + Luminespib (first compound 2.53 µM), 1.02; with Salubrinal + Luminespib (first compound 8 µM), 0.894; with Salubrinal + Lapatinib (first compound 0.08 µM) it was 0.91; with Salubrinal + Lapatinib (first compound 0.253 µM) it was 0.743. For the same cell line, the relative viability with Salubrinal + Lapatinib (first compound 0.8 µM) amounted to 1.1; with Salubrinal + Lapatinib (first compound 2.53 µM) it was 0.97; with Salubrinal + Lapatinib (first compound 8 µM), 0.939; with Salubrinal + AZD7762 (first compound 0.08 µM) it was 1.02; in the assay with Salubrinal + AZD7762 (first compound 0.253 µM), 1.01; with Salubrinal + AZD7762 (first compound 0.8 µM), 1.02. For the same cell line, the relative viability is 1 with Salubrinal + AZD7762 (first compound 2.53 µM) and 0.977 with Salubrinal + AZD7762 (first compound 8 µM).
